Experimental data from patent publication US6465494B1, “Methods for treatment of cystic fibrosis” (Cell Pathways, Inc., priority 2001, dated 2002).
Like-named read-outs stand apart in the source and are kept apart here.

What was measured:
[1] = target: T1, GST-cGB-PDE5 fusion protein (Homo sapiens, UniProt O76074); assay: cGMP binding assay with GST-cGB-PDE5 fusion protein; settings: for competition with cGMP binding to GST-cGB-PDE5 at high concentration: compound at high concentration, cGMP 2 μM
T1 construct: made in house; host or cells: E. coli BL21 (DE3)
Text: RT-PCR method is used to obtain the cGB domain of PDE5 with forward and reverse primers designed from bovine PDE5A cDNA sequence (McAllister-Lucas L. M et al, J. Biol. Chem. 268, 22863-22873, 1993) and the selection among PDE 1-10 families. 5′-3′, Inc. kits for total RNA followed by oligo (dT) column purification of mRNA are used with HT-29 cells. […] It is then cloned into pGEX-5X-3 glutathione-S-transferase (GST) fusion vector (Pharmacia Biotech )with tac promoter, and EcoRI and XhoI cut sites. The fusion vector is then transfected into E. Coli BL21 (DE3) bacteria (Invitrogen). The transfected BL21 bacteria is grown to log phase, and then IPTG is added as an inducer. The induction is carried at 20° C. for 24 hrs. The bacteria are harvested and lysed. The soluble cell lysate is incubated with GSH conjugated Sepharose 4B (GSH-Sepharose 4B). The GST-cGB-PDE5 fusion protein can bind to the GSH-Sepharose beads, and the other proteins are washed off from beads with excessive cold PBS.
Then, the mixture is transferred to Brandel MB-24 cell harvester with GF/B as the filter membrane followed by 2 washes with 10 mL of cold 5 mM potassium buffer(pH 6.8). The membranes are then cut out and transferred to scintillation vials followed by the addition of 1 mL of H2O and 6 mL of Ready Safe™ liquid scintillation cocktail to each vial. The vials are counted on a Beckman LS 6500 scintillation counter.
The quenching by filter membrane or other debris are also calibrated.

PDE5 = PDE5 (Homo sapiens, UniProt O76074); assay: cGMP PDE inhibition, 3H-cGMP hydrolysis: PDE5; assay type: biochemical; parameters: partially purified cGMP-specific PDE isolated from HT-29 cells; endogenous in cells; host or cells: HT-29
Experimental: (Thompson, W. J., Teraski, W. L., Epstein, P. M., Strada, S. J., Advances in Cyclic Nucleotide Research, 10:69-92, 1979, which is incorporated herein by reference). […] The mixture is incubated at 30° C. for 10 minutes with isolated PDE2 and/or PDE5. Reactions are terminated, for example, by boiling the reaction mixture for 75 seconds. After cooling on ice, 100 μl of 0.5 mg/mL snake venom (O. Hannah venom available from Sigma) is added and incubated for 10 minutes at 30° C. This reaction is then terminated by the addition of an alcohol, e.g. 1 mL of 100% methanol. Assay samples are applied to 1 mL Dowex 1-X8 column; and washed with 1 mL of 100% methanol. The amount of radioactivity in the breakthrough and the wash from the column is combined and measured with a scintillation counter. The degree of phosphodiesterase inhibition is determined by calculating the amount of radioactivity in drug-treated reactions and comparing against a control sample (a reaction mixture lacking the tested compound but with drug solvent).
Compounds of this invention are also PDE2 and PDE5 inhibitors as taught in part U.S. patent application Ser. No. 09/046,739 filed Mar. 24, 1998. […] The amount of radioactivity in the breakthrough and the wash from the columns in then measured with a scintillation counter. […]

native bovine PDE5 = native bovine PDE5 (Bos taurus, UniProt Q28156); settings: read-out: Kd of cGMP binding, native bovine PDE5; cited from earlier work
U937 cells = assay: apoptosis induction of U937 cells (active caspase 3 immunofluorescence); assay type: cell-based; settings: 24 hours
Experimental: The U937 monocyte cell line was derived from a histocytic lymphoma and can be driven to differentiate into an ‘activated macrophage like’ state by treatment with 5nM phorbal ester (TPA). Treated U937 cells become adherent, increase their cytoplasmic volume and express macrophage-specific cell surface markers. The presence and level of PDE2 and 5 mRNA in both differentiated and non-differentiated U937 cells was confirmed by performing RT-PCR experiments on total RNA.
U937 cells (from ATCC Rockville, Md.) were grown in RPMI media supplemented with 5% FCS, glutamine, antibiotic/antimycotic and sodium pyruvate. Total RNA was isolated from two U937 cultures, one treated with 5nM TPA for 48 hours and one grown in normal media as listed above, using the Rouche High Pure RNA Isolation Kit (cat# 1 828 665) as per manufacturers protocol. cDNA was then synthesized from the total RNA using GibcoBRL Superscriptll (Cat # 18064-022) reverse transcriptase as per manufacturers protocol. The resulting cDNA was used as a template for RT-PCR reactions using primer sets specific for PDE2 (forward: […], reverse: […]) or PDE5 (forward: […], reverse: […]). mRNA for PDE2 and 5 were both present in the untreated U937 cells. Upon treatment with TPA, the relative amounts of PDE2 mRNA increased 5 fold. Therefore, U937 cells treated with TPA and driven to differentiate into an activated macrophage like state have elevated levels of PDE2 mRNA (see FIG. 1).
The presence of PDE2 and PDE5 protein within U937 cells was confirmed by indirect immunofluorescence (IIF). U937 cells were cultured as above. Two U937 cultures, one grown in the presence of 5 nM TPA for 48 hours and one grown in normal media were processed. All cultures were collected by centrifugation (Shandon Cytospin, 2 minutes @ 600 rpm) onto poly-L lysine-coated slides and immediately fixed in fresh 3% paraformaldehyde buffered in PBS for 10 minutes. Adherent cultures were grown on coverslips and fixed as above. […]
The level of apoptosis in U937 cells was quantified by scoring 500 consecutive cells for the presence of active caspase 3. […]

Structure (SMILES)	competition with cGMP in binding to the cGMP binding sites of GST-cGB-PDE5 ([1]; 3H-cGMP 2 μM, 22° C., 1 hour)	also measured
CCCCOC1C2OP(=O)(O)OCC2OC1n1cnc2c(N)ncnc21 (stereo not shown) [2′-O-butyl-cAMP]	did not compete	–
CCCCOC1C2OP(=O)(O)OCC2OC1n1cnc2c(=O)[nH]c(N)nc21 (stereo not shown) [2′-O-butyl-cGMP]	did not compete	–
Nc1ncnc2c1ncn2[C@@H]1O[C@@H]2COP(=O)(O)O[C@H]2[C@H]1O [Cyclic AMP]	–	competition with cGMP in binding to the cGMP binding sites of GST-cGB-PDE5 [1]: did not compete
O=c1[nH]cnc2c1ncn2[C@@H]1O[C@@H]2COP(=O)(O)O[C@H]2[C@H]1O [Cyclic IMP, cyclic IMP]	–	competition with cGMP binding to GST-cGB-PDE5 at high concentration [1]: can partially compete
CC1=C(CC(=O)NCc2ccccc2)c2cc(F)ccc2/C1=C\c1ccncc1 [Example 1, (Z)-5-Fluoro-2-Methyl-(4-Pyridinylidene)-3-(N-Benzyl)-Indenylacetamide]	–	IC50 (PDE5): 680 nM
Nc1nc2c(nc(Br)n2[C@@H]2O[C@@H]3COP(=O)(O)O[C@H]3[C@H]2O)c(=O)[nH]1 [Example 8-bromo-cGMP, 8-bromo-cGMP]	–	competition with cGMP binding to GST-cGB-PDE5 at high concentration [1]: can partially compete
O=C([O-])C1CCN(c2nc(NCc3ccc4c(c3)OCO4)c3cc(Cl)ccc3n2)CC1.[Na+] [Example E4021]	None of the PDE5 inhibitors showed any competition with cGMP	–
CSc1ccc(/C=C2/C(C)=C(CC(=O)O)c3cc(F)ccc32)cc1 [Sulindac sulfide, sulindac sulfide]	None of the PDE5 inhibitors showed any competition with cGMP	–
Nc1ccn([C@@H]2O[C@@H]3COP(=O)(O)O[C@H]3[C@H]2O)c(=O)n1 [cCMP, cyclic CMP]	did not compete	–
Nc1nc2c(ncn2[C@@H]2O[C@@H]3COP(=O)(O)O[C@H]3[C@H]2O)c(=O)[nH]1 [cGMP, cyclic 3′,5′-guanosine monophosphate]	–	Kd ([1]; read-out: Kd of cGMP binding to GST-cGB-PDE5 fusion protein, two cGMP binding sites): 1600 ± 200 nM; Kd (native bovine PDE5): 1300 nM
O=c1ccn([C@@H]2O[C@@H]3COP(=O)(O)O[C@H]3[C@H]2O)c(=O)[nH]1 [cUMP, cyclic UMP]	did not compete	–
CC1=C(CC(=O)O)c2cc(F)ccc2/C1=C\c1ccc(S(C)(=O)=O)cc1 [exisulind]	None of the PDE5 inhibitors showed any competition with cGMP	–
COc1ccc(C2CNC(=O)C2)cc1OC1CCCC1 (stereo not shown) [rolipram, reference compound]	–	levels of apoptosis (active caspase 3) (U937 cells; 0.5uM): No increase in the levels of apoptosis compared to normal background
CCCc1nn(C)c2c(=O)[nH]c(-c3cc(S(=O)(=O)N4CCN(C)CC4)ccc3OCC)nc12 [sildenafil, reference compound]	–	levels of apoptosis (active caspase 3) (U937 cells; 0.3nM): No increase in the levels of apoptosis compared to normal background
CCCOc1ccccc1-c1nc2nn[nH]c2c(=O)[nH]1 [zaprinast]	None of the PDE5 inhibitors showed any competition with cGMP	–
